Where a SMILES comes first, the peptide text is derived from it.
System: R. oryzae UCP1295
Assay: Screening of the Pandemic Response Box library at 5 µM
Type: cell-based, Rhizopus oryzae
Settings: 48 h, Table S1, mean of the four values
Method in brief: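 Compounds at 5 μM in RPMI 1640 with 2% glucose and MOPS (0.165 mol/L, pH 7.2), with conidia at 2 × 10^5/mL, incubated 48 h at 37 °C in 5% CO2. Growth read by OD at 600 nm; hits defined as ≥60% inhibition. Posaconazole (5 μM) and 1% DMSO as controls.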

| Compound | % of growth inhibition, Mean [%] |
| --- | --- |
| N=c1n(CCN2CCCCC2)c2ccccc2n1CC(O)COc1ccc(Cl)cc1Cl (stereo not drawn) [MMV394033] | -0.8 |
| Cc1cc(O)c2c(c1)C(=O)c1c(I)c(O)c(I)c(O)c1C2=O [MMV1581545] | -41.8 |
| Cc1ccccc1NC(=O)Nc1cccc([N+](=O)[O-])c1 [MMV1581029] | 1.6 |
| C[N+]1(C)CCCC(OC(=O)C(O)(c2ccccc2)c2ccccc2)C1 (stereo not drawn) [MMV002676] | -16.3 |
| CC1CCc2c(N3CCC(O)CC3)c(F)cc3c(=O)c(C(=O)O)cn1c23 (stereo not drawn) [MMV637659] | -19.1 |
| O=C(Nc1ccc(Cl)c(C(F)(F)F)c1)C(CCCl)C(=O)Nc1ccc(Cl)c(C(F)(F)F)c1 [MMV1580840] | -7.5 |
| CCn1cc(C(=O)O)c(=O)c2cc(F)c(N3CCNC(C)C3)c(F)c21.Cl (stereo not drawn) [MMV002350] | -4.3 |
| CN(C(=O)C1(c2ccc(Cl)cc2)CCC1)c1ccccc1 [MMV1581030] | -7.5 |
| O=C(O)c1cc(-c2ccccc2)nc2ccccc12 [MMV018362] | -11.4 |
| CCCC(=O)OCCc1ccccc1 [MMV1578899] | -2.6 |
| NC(=O)c1ccccc1NC(=O)c1ccc(C(=O)Nc2ccccc2C(N)=O)cc1 [MMV508427] | -9.9 |
| Fc1ccc(-n2cc(Cn3c(-c4cccc(F)c4)nc4ccccc43)nn2)cc1 [MMV1580850] | -26.0 |
| CN(C)CCCOc1ccc(-c2ccc3ncc4c(c3c2)n(C2CCOCC2)c(=O)n4C)cn1 [MMV1580483] | -5.4 |
| O=C(O)C[C@H]1CC[C@H](c2ccc(-c3ccc(Nc4ccc(C(F)(F)F)nc4)cn3)cc2)CC1 [MMV1580498] | -26.7 |
| c1cnc(NCc2ccc(CNc3ncccn3)cc2)nc1 [MMV1580490] | -10.6 |
| Nc1nnnn1CCOc1c2[nH]c3ccc(Cl)cc3c2cc2c1[nH]c1ccc(Cl)cc12 [MMV1633966] | -30.2 |
| COc1c(NC(=O)[C@H]2CC[C@@H](COc3ccc([N+](=O)[O-])cc3)CC2)c(F)cc2c(=O)c(C(=O)O)cn(C3CC3)c12 [MMV1633965] | -11.6 |
| COc1c(F)c(F)cc2c(=O)c(C(=O)O)cn(C3CC3)c12 [MMV1480967] | -20.4 |
| Cc1ccn2c(C(=O)NCc3ccccc3)c(C)nc2c1 [MMV1579847] | -7.2 |
| Cc1nc(Nc2ccc(F)cc2)nc(N2CCc3ccccc3C2C)c1C (stereo not drawn) [MMV030787] | -5.0 |
| O=C(Nc1ncc(Cc2cccc3ccccc23)s1)C1CCCCC1 [MMV1593532] | -14.7 |
| CCCCCCCc1[nH]c2ccccc2c(=O)c1O [MMV1578561] | -24.4 |
| CCCCc1ccc(-c2cc(C(=O)O)cc(-c3ccc(Cl)cc3)n2)cc1 [MMV1580852] | -12.9 |
| COc1ccc2c(c1OC)C(=O)OC2C1c2c(cc3c(c2OC)OCO3)CCN1C (stereo not drawn) [MMV002780] | -7.9 |
| Clc1cccc(-c2nnc(-c3ccccc3)o2)c1 [MMV141011] | -16.6 |

| Compound | % of growth inhibition, Mean [%] |
| --- | --- |
| O=C(O)c1sccc1S(=O)(=O)n1ccc2cc(Br)ccc21 [MMV1580855] | -1.0 |
| CSC[C@H]1CN(Cc2c[nH]c3c(N)ncnc23)C[C@@H]1O [MMV1578565] | -14.4 |
| CC[C@@]1(O)C(=O)OCc2c1cc1n(c2=O)Cc2cc3c(CN(C)C)c(O)ccc3nc2-1.Cl [MMV1633678] | -10.2 |
| O=C1C=C(c2ccccc2)S(=O)(=O)c2ccccc21 [MMV1006203] | -8.8 |
| CC(N)C(=O)NC(CCCCN)C(=O)NC(CCCNC(=N)N)C(=O)NC(Cc1c[nH]cn1)C(=O)NC(Cc1c[nH]cn1)C(=O)NCC(=O)NC(Cc1ccc(O)cc1)C(=O)NC(CCCCN)C(=O)NC(CCCNC(=N)N)C(=O)NC(CCCCN)C(=O)NC(Cc1ccccc1)C(=O)NC(Cc1c[nH]cn1)C(N)=O (stereo not drawn) [MMV1579849] (H-AKRHHGYKRKFH-NH2; configuration not given here) | -25.8 |
| O=C(CSc1nnc(Br)n1-c1ccc(C2CC2)c2ccccc12)Nc1ccc(C(=O)O)cc1Cl [MMV1782213] | -4.3 |
| O=C(CC1Sc2ncnn2C1=O)Nc1ccc(Br)cc1 (stereo not drawn) [MMV214956] | -17.9 |
| O=C1NC(=S)N/C1=C\c1cc(Br)cc(Br)c1O [MMV1578569] | -14.5 |
| O=C(O)c1ccc(-c2ccc(O[C@H]3O[C@H](CO)[C@@H](O)[C@H](O)[C@@H]3O)cc2)cc1 [MMV1633970] | -12.3 |
| Cc1cccc(C)c1C(=O)Nc1nc(-c2ccccn2)cc2ccccc12 [MMV1581558] | 53.3 |
| CCc1ccccc1OCCN1CCCCCC1 [MMV1633962] | -12.2 |
| Cc1nc(-c2ccc(C3N(C)c4ccc(F)cc4C(=O)N3c3ccccc3)s2)cs1 (stereo not drawn) [MMV1582492] | -6.7 |
| O=C1CCC(N2C(=O)c3ccccc3C2=O)C(=O)N1 (stereo not drawn) [MMV002612] | -21.8 |
| CNc1nc(=O)[nH]cc1F [MMV1782388] | -27.5 |
| CC1(C)[C@H](C(=O)O)N2C(=O)C[C@H]2S1(=O)=O [MMV637945] | -27.5 |
| CC(C)CCN1C(=O)C(C2=NS(=O)(=O)c3cc(NS(C)(=O)=O)ccc3N2)=C(O)[C@@H]2[C@H]3CC[C@H](C3)[C@@H]21 [MMV1782220] | 6.0 |
| O=C(O)CCNC(=O)c1ccccc1 [MMV002224] | -6.2 |
| CCOc1noc2cc(OCCC3CCN(c4ccc(C)nn4)CC3)ccc12 [MMV1634071] | -15.0 |
| Cc1onc(-c2ccccc2Cl)c1C(=O)N[C@@H]1C(=O)N2[C@@H]1SC(C)(C)[C@@H]2C(=O)O [MMV002740] | -27.0 |
| Cc1cc(Nc2ccc(F)cc2)nc(SCc2nc3ccccc3[nH]2)n1 [MMV1582498] | -17.0 |
| O=C(NO)C1(CS(=O)(=O)c2ccc(Oc3ccc(Cl)cc3)cc2)CCOCC1 [MMV690706] | -11.0 |
| CN1CCN(c2ccc3[nH]c(-c4ccc5[nH]c(-c6ccc(O)cc6)nc5c4)nc3c2)CC1 [MMV020752] | -8.9 |
| Oc1c(C(Nc2ccccn2)c2ccccc2)ccc2cccnc12 (stereo not drawn) [MMV565773] | -30.1 |
| CCc1oc2ccccc2c1C(=O)c1ccc(O)cc1 [MMV1578558] | -39.8 |
| Cl.Cl.NCCCc1ccccc1C(=O)Nc1ncc([N+](=O)O)s1 [MMV1579786] | -16.7 |

| Compound | % of growth inhibition, Mean [%] |
| --- | --- |
| COc1cc(C)c2c(Oc3cccc(C(F)(F)F)c3)c(OC)cc(NC(C)CCCN)c2n1.O=C(O)CCC(=O)O (stereo not drawn) [MMV000043] | -36.7 |
| CCNC(=O)Nc1cc(-c2ccccc2)c(-c2cncc(C(=O)O)c2)cn1 [MMV1593534] | -20.0 |
| O=C(Nc1nnc(-c2ccc(Cl)cc2)o1)c1nc2ccccc2s1 [MMV102833] | 1.7 |
| O=C(CCc1ccc2c(c1)OCO2)NCc1ccc(-c2ccccc2F)cc1 [MMV1782110] | -2.8 |
| Cn1cc(NC(=O)c2cc(NC(=O)c3ccc(/C=C/c4cnc5ccccc5c4)cc3)cn2C)cc1C(=O)NCCN1CCOCC1 [MMV1634391] | -17.4 |
| CCc1cc(Nc2cc(=O)n(CCN3CCN(C(=O)c4ccccc4)CC3)c(=O)[nH]2)ccc1C [MMV1634383] | -3.9 |
| C[C@H]1[C@@H](c2cccc(C(F)(F)F)c2)OC(=O)N1C(=O)NCc1cncc2ccccc12 [MMV1593533] | -13.8 |
| COc1nc2ccc(Br)cc2cc1[C@@H](c1ccccc1)[C@@](O)(CCN(C)C)c1cccc2ccccc12 [MMV689758] | -19.9 |
| Cc1[nH]c2ccccc2c1CCNCc1ccc(/C=C/C(=O)NO)cc1 [MMV010036] | 1.8 |
| Cc1ccc(NC(=O)c2ccc(CN3CCN(C)CC3)cc2)cc1Nc1nccc(-c2cccnc2)n1 [MMV009948] | -3.0 |
| CC(C)(C)c1ccc(C(=O)NC(=O)N2CCCc3ccccc32)cc1 [MMV1782212] | -4.9 |
| COc1ccc(SCC(=O)N2c3ccccc3Sc3ccccc32)cc1 [MMV1578573] | -3.7 |
| CCC(CC)[C@H](NC(C)=O)[C@@H]1[C@H](O)[C@@H](C(=O)O)C[C@H]1NC(=N)N [MMV1593511] | 1.4 |
| COC(=O)Nc1nc2ccc([S+]([O-])c3ccccc3)cc2[nH]1 (stereo not drawn) [MMV002565] | -39.5 |
| CCCCSc1nc(N)c2[nH]c(=O)c(=O)n(Cc3ccccc3)c2n1 [MMV1579783] | -34.5 |
| O=C(CCCC(F)(F)F)N1CCC(c2nc(-c3nccs3)no2)CC1 [MMV1582491] | -26.7 |
| COc1ccc2c(c1)cc(CNC(=O)c1cc3ccccc3o1)n2CC(=O)O [MMV1581553] | -20.7 |
| O=C(/C=C/n1cnc(-c2cc(C(F)(F)F)cc(C(F)(F)F)c2)n1)NNc1cnccn1 [MMV1593517] | -8.5 |
| O=C(O)c1ccccc1Sc1ncnc2sc3c(c12)CCC3 [MMV1579878] | -41.9 |
| COc1ccc(CNC(=O)C2CCN(C(C)c3cccc4ccccc34)CC2)cc1 (stereo not drawn) [MMV1634397] | -12.7 |
| CC(C)(C)NC(=O)[C@@H]1C[C@@H]2CCCC[C@@H]2CN1C[C@@H](O)[C@H](Cc1ccccc1)NC(=O)[C@H](CC(N)=O)NC(=O)c1ccc2ccccc2n1 [MMV637879] | 25.0 |
| O=c1cc(Nc2ccc3ccccc3c2)[nH]c(=O)[nH]1 [MMV1581546] | -6.0 |
| O=C(NCc1ccc(F)cc1)c1c(O)c2ncccc2[nH]c1=O [MMV1782097] | 3.9 |
| O=C(N[C@H](Cc1cccc2ccccc12)C(=O)NCCc1c[nH]cn1)C1Cc2ccccc2C1 [MMV1782109] | -14.0 |
| C/C(=N\NC(=O)C1CC1c1ccccc1)c1ccc(NC(=O)c2ccco2)cc1 (stereo not drawn) [MMV1580487] | 0.3 |

From publication PMC9959553, “Promising Antifungal Molecules against Mucormycosis Agents Identified from Pandemic Response Box®: In Vitro and In Silico Analyses” (Journal of Fungi, 2023)
